We go through six compounds from patent US6500425B1, “Inhibiting plant pathogens with an antagonistic microorganism(s)” (The United States of America as represented by the …, priority 1988, dated 2002).

Common to all, as to type: in vivo
Assay [1] relates to Botrytis cinerea. The assay is described as follows: Botrytis cinerea infection of wounded apples, inorganic salts with or without NRRL Y-18314 (Example XI). The note with it: for Percent Infection, Salt Alone (No NRRL Y-18314): salt 2 grams/100 ml (FeSO4 5 millimolar), 10 days after inoculation, mean (standard error). The protocol:
Golden delicious apples were artificially wounded to a depth of 3 mm using a needle. Each of a first portion of the apples was treated with 50 microliter aliquots of an aqueous solution consisting of NRRL Y-18314 in sterile distilled water at a concentration of 10^7 CEU/ml with each of the salts listed in Table VIII at a concentration of 2 grams/100 ml (with the exception of FeSO4 which was utilized at a 5 millimolar concentration). A second portion of the apples was treated with a 50 microliter aqueous solution of the salts listed in Table VIII at a concentration of 2 grams/100 ml (with the exception of FeSO4 which was utilized in a concentration of 5 millimolar). Also a control was run using only sterile distilled water. Two hours after application of the above solutions, each of the apples was challenged with 20 microliters of a 10^5 spore/ml suspension of Botrytis cinerea. The average percent fruit infection of four trials (8 to 10 replicates per trial) was measured 10 days after inoculation with the Botrytis cinerea.
Values in parentheses are standard errors of the mean.

The subject of another assay is Penicillium expansum. The assay is described as follows: Penicillium expansum lesion diameter on wounded apples (Example XIII). The following applies: CaCl2 2 gram/100 ml alone (yeast 0), seven days. The source says:
Golden delicious apples were artificially wounded in accordance with Example XI.
The entries of Table X are the average of 5 replicates per treatment.

The next assay deals with Penicillium digitatum. The assay is described as follows: Penicillium digitatum fruit rot of wounded grapefruit, CaCl2 and yeast concentrations (Example XIV). The protocol:
Grapefruit was wounded as in Example I. The wounded grapefruit were then treated with 50 microliter aliquots of the constituents identified in Tables XI and XII in sterile distilled water. Two hours later the […] were challenged with 20 microliters of a 10^4 spore/milliliter suspension of Penicillium digitatum. The grapefruit were incubated for 5 days at 24° C. before observations were taken.

Assay [2] deals with Botrytis cinerea. The assay is described as follows: Botrytis cinerea infection of wounded apples, yeasts with or without CaCl2 (Example XII). The following applies: CaCl2 2 grams/100 ml, no yeast, seven days, mean (standard error). From the text: Golden Delicious apples were wounded in accordance with the previous example. […] Two hours later the apples were challenged with 20 microliters of a suspension of 10^4 spores/milliliters of Botrytis cinerea. Seven days after inoculation percent infection was observed. […] Values in parentheses are standard errors of the mean.

Each structure is given as a SMILES string.

As for `[Ca+2].[Cl-].[Cl-]` [CaCl2, calcium chloride], the “Percent Infection, Salt Alone (No NRRL Y-18314)” value with Botrytis cinerea [1] is reported as 95.0 (±5.0) %. In addition, the “infection reduction when used alone” value in the assay with Botrytis cinerea [1] (used alone, 10 days) is “approximately 5%”. Moreover, the “Average Lesion Diameter” value is recorded as 40.4 mm in the assay on Penicillium expansum (10^3 spores/ml), 45.2 mm in the assay with Penicillium expansum (10^4 spores/ml) and 47.0 mm in the assay with Penicillium expansum (10^5 spores/ml). Also, the “Average Percent Fruit Rot” value in the assay with Penicillium digitatum (CaCl2 1% alone (yeast 0), series of Table XI) was determined as 39.0%; with Penicillium digitatum (CaCl2 1% alone (yeast 0), series of Table XII), 63.0%; with Penicillium digitatum (CaCl2 2% alone (yeast 0), series of Table XI), 22.8%; in the assay on Penicillium digitatum (CaCl2 2% alone (yeast 0), series of Table XII) it was 33.0%. Further, in the assay with Botrytis cinerea [2], the “Average Percent Infection” value is listed as 100.0 (±0.0) %.
In the case of `[Cl-].[K+]` [KCl], the “Percent Infection, Salt Alone (No NRRL Y-18314)” value in the assay on Botrytis cinerea [1] is recorded as 100.0 (±0.0) %.
The same measure, in the same setting: in the case of `O=S(=O)([O-])[O-].[Fe+2]` [FeSO4] it was 87.5 (±12.5) %; in that of `[Cl-].[Na+]` [NaCl], 100.0 (±0.0) %; in that of `[Cl-].[Cl-].[Mg+2]` [MgCl2], 100.0 (±0.0) %.
The same measure, in the same setting: in the case of `[Cl][Mn][Cl]` [MnCl2] it was 100.0 (±0.0) %.
